Results as given in patent US20040171594A1, “Use of bis-acid(5-androsten-17-one-3beta-hydroxyl)diester for manufacture pharmaceuticals” (priority 2001, published 2004).
Marks after values point to notes of the source that are not given here.

What was measured:
[1] = tested on: arrhythmia of rats induced by Aconitine; assay: Arrhythmia of rats induced by Aconitine; assay type: in vivo, SD rats; settings: {}
Protocol: Male SD rats, weighing (218.3±20.0) g, were anaesthetized with urethane 1.2 g/kg body weight by abdominal injection, continuously monitored by II lead electrocardiogram (ECG) by MS302 Biological Signal Record and Analysis System. After ten minutes of being administered drug or 0.5% CMC-Na through sublingual vein, rats were injected with Aconitine in external jugular vein at 2.5 μg/min speed, recorded the dose at appearance time of ventricular premature beat (VP), ventricular tachycardia (VT), ventricular fibrillation (VF) and cardiac arrest (CA), respectively. And t test was performed. […] The effect of compounds Ca Do E at 0.5 mg/kg dose were remarkably better than that of Prasterone and Arniodarone.

[2] = tested on: arrhythmia of guinea pigs induced by Ouabain; assay: Arrhythmia of guinea pigs induced by Ouabain; assay type: in vivo; settings: drug 3 mg/kg 10 min before Ouabain 3 μg/min, n=8
Protocol: Chose 40 male guinea pigs, weighing (288.8±38.3) g, randomly divided into six groups, anaesthetized with urethane 1.2 g/kg by abdominal injection. Ten minutes after administered drug or 0.5% CMC-Na, the guinea pigs were injected Ouabain into external jugular vein at 3 μg/min speed, recorded ECG respectively, measured the dose at appearance time of VP, VT, VF and CA, and performed t test.

[3] = tested on: arrhythmia of rats induced by BaCl2; assay: Arrhythmia of rats induced by BaCl2; assay type: in vivo, SD rats; settings: BaCl2 4 mg/kg, within 60 min, n=10
Protocol: 50 male SD rats, weighing (236.7±13.7)g, were anaesthetized with 10% chloral hadrate 0.3 g/kg intraperitoneally, recorded ECG with intubating of external jugular vein administering drug. As soon as injected with BaCl2 4 mg/kg, rats usually emerged VP and VT quickly and developed to be the steady and typical double-aspect arrhythmia. After immediately injected with drug or 0.5% CMC-Na into vein, recorded the time of recovering and maintaining sinus rhythm within 60 min as standard, and compared the function between five groups. […] Time of maintaining sinus rhythm was longer and acted more quickly than that of Amiodarone group.

[4] = tested on: osteoporosis model of rats induced by Retinoic acid; assay: Osteoporosis model of rats induced by Retinoic acid; assay type: in vivo, SD rats; settings: Retinoic acid 70 mg/kg, specimen orally 30 days (dose not given), right thighbone, n=8
Excerpt: After continuously administering specimen for 30 days, killed rats and took right thighbone of rat.
Took same part tissue of right thighbone, routinely decalcified, enveloped with olefin, and dyed with HE. Observed with ordinary optics microscope, import all imagines into computer with A/D conversion of pickup camera, via dealing with image analysis software obtained index of guide line as follows: relative bone volume, indicating percentage that bone trabecula accounted for medullary cavity, 1.25×10×4 times; average width of bone trabecula, 1.25×10×10 times; amount of cell per area in bone trabecula, gathering same area image (640×480) of bone trabecula with image analysis software, calculating amount of bone cell in corresponding area, 1.25×10×40 times; Average length of bone cell lacuna, 1.25×10×40; Average width of bone cell lacuna, 1.25×10×40. The above five indexes of static state guide-line were all observed for ten eyeshots, calculating their average value.

[5] = tested on: myocardium injury model of rats induced by ISO; assay: Myocardium injury (myocardial ischemia) model of rats induced by ISO; assay type: in vivo, SD rats; settings: drug 0.76 mg/kg, n=8; for Σ ST: rats, ISO s.c.
Protocol: SD rats were measured ECG by chest leads before experiment, abandoned those of abnormal or arrhythmia at T wave, ST sect. […] They were divided into four groups according to Table 4, eight rats in each group. As dose of Table 4, tested compounds or 0.5% CMC-Na solution with same volume were administered through duodenum for 30 minutes, rats were anaesthetized with aether. After ECG was recorded, Isoproterenol (ISO) was administered by subcutaneous injection from the back, recorded ECG again after 30 minutes. After specimen was intragastricly granted for 24 hours and 48 hours, every group was administered simples again and recorded ECG again in terms of the methods stated above. After 72 hours, bleeding from the ophthalmic venous plexus and separated blood serum through centrifugation. Killed the rats, scissor the tip of the heart to prepare 10% myocardial tissue homogenate with 4° C. physiological saline as standby.
Measured each rat's value of ST before first administering ISO. And after first, second and third subcutaneous injection for 30 minutes, calculated mv mean value of ΣST as guide line of myocardium injury and performed t test.
The changes of MDA LDH and CK in serum were measured with agent kits.
The changes of MDA, LDH and CK in serum and myocardial tissue homogenate were measured with agent kits.

[6] = tested on: acute renal failure of mice induced by endotoxin; assay: Acute renal failure model induced by endotoxin; assay type: in vivo, NIH mice; settings: drug 10 mg/kg i.p., endotoxin 0.06 g/kg, after five hours, n=10; for GSH-Px: mice kidney homogenate; for BUN / Cr: mice serum
Protocol: After five hours, blood of the mice was collected by removing eyes, assayed Blood Urea Nitrogen (BUN) and Creatinine (Cr) concentration of serum. One kidney of each […] was taken out and made 100 mL/L homogenate, assayed activity of Glutathione Peroxidase (GSH-Px) enzyme.

[7] = tested on: thymus and spleen of mice; assay: Indexes of thymus and spleen of mice injected with cyclophosphamide; assay type: in vivo, NIH mice; settings: cyclophosphamide 60 mg/kg i.p., drug 10 mg/kg intragastric for 30 days, n=10
Protocol: Chose 90 healthy NIH mice, weighing (18˜22)g, equal amount of male and female. Every mouse was injected with cyclophos phamide (60 mg/kg, intraperitoneally). […] Administered specimen through intragastric intubation in terms of the dose in Table 8. Continuously administered orally specimen for 30 days, all mice fasted on the 30th day, but were supplied with water. On the 31th day, mice of every group were killed. Weighed their body, thymus and spleen, calculated index of thymus and spleen, compared the difference among each group.

[8] = tested on: cerebral ischemia-reperfusion injury of mice; assay: Memory step-through test after cerebral ischemia-reperfusion injury; assay type: in vivo, NIH mice; settings: 4.5 mg/kg intragastric once a day for 10 days, n=10
Protocol: After weighed, NIH mice were anaesthetized with Penbotarbital 60 mg/kg, then performed operation. Fixed at supine position, the skin in the middle of the deck was dissected about 7 mm. Separated common carotid artery of two sides of neck, surrounded with the thread of No “0”. Common carotid artery of two sides was chipped with artery clip for 2 minutes to induce cerebral ischemia. In the end of ischemia treatment, artery clip was loosed and blood perfusion was restored, rest for five minutes, repeated twice as that. After blocking blood flow of carotid, sutured incision. Recorded trail bloodletting, bloodletting quantity was no more than 10% of total blood quantity. After operation, […] were administered with proper physiological saline through intraperitoneal injection in order to supple capacity of blood. After pseudo operation group was anaesthetized, carotid of two sides was separated but blood flow was not blocked, without being bloodletting too.
In experiment appearance of body temperature lowering and righting reflex disappearing was as positive guide-line of ischemia, discarding those without typical guide line of ischemia. In the procedure of ischemia or after operation, some of animals would be dead. […] According to the dose of Table 7, animals were administered with medicine by intragastric intubation once a day, and continue administered drug for 10 days. After 10 days, memory test was performed.

[9] = myocardial tissue homogenate of rats with ISO myocardium injury
[10] = serum of rats with ISO myocardium injury, after 72 hours

Molecule | Amount of cell per area in bone trabecula [4] | Average width of bone trabecula [4] [μm] | Relative bone volume [4] [%] | Activity of CK [5, 9] [U/L] | Activity of LDH [5, 9] [U/L] | MDA [5, 9] [nmol/g] | Σ ST ([5]; 30 min) [mv] | Σ ST ([5]; 24 h) [mv] | Σ ST ([5]; 48 h) [mv] | Σ ST ([5]; 72 h) [mv] | Activity of CK [5, 10] [U/L] | Activity of LDH [5, 10] [U/L] | MDA [5, 10] [nmol/mL] | GSH-Px [6] [nU · L^−1] | BUN [6] | Cr [6] | Index of spleen [7] [mg/10 g body weight] | Index of thymus [7] [mg/10 g body weight] | Latency of dark cabin, Memory [8] [s] | Latency of dark cabin, Study [8] [s] | other results
CCCCc1oc2ccccc2c1C(=O)c1cc(I)c(OCCN(CC)CC)c(I)c1 [Amiodarone, reference compound] | – | – | – | – | – | – | – | – | – | – | – | – | – | – | – | – | – | – | – | – | Dose of Aconitine required to induce CA [1]: 0.176 ± 0.038 mg/kg; Dose of Aconitine required to induce VF [1]: 0.1412 ± 0.0282 mg/kg; Dose of Aconitine required to induce VP [1]: 0.09 ± 0.0257 mg/kg; Dose of Aconitine required to induce VT [1]: 0.1088 ± 0.0254 mg/kg; Dose of Oua at appearance of CA [2]: 0.2836 ± 0.0439 mg/kg; Dose of Oua at appearance of VF [2]: 0.2476 ± 0.0461 mg/kg; Dose of Oua at appearance of VP [2]: 0.1184 ± 0.0335 mg/kg; Dose of Oua at appearance of VT [2]: 0.175 ± 0.0411 mg/kg; time of maintaining sinus rhythm ([3]; drug 3 mg/kg into vein): 40.156 ± 5.124 min; time of storing sinus rhythm ([3]; drug 3 mg/kg into vein): 15.859 ± 5.126 min
butanediol-disulphonic acid-(5-androsten-17-one-3β-ol)-diester [Compound I] | 31.84 ± 3.94 | 61.37 ± 4.71 | 29.84 ± 3.56 | 214.27 ± 40.62 | 159.82 ± 31.69 | 115.02 ± 10.34 | 0.49 ± 0.12 | 0.54 ± 0.12 | 0.50 ± 0.06 | 0.54 ± 0.08 | 242.14 ± 22.72 | 233.35 ± 18.46 | 24.64 ± 2.53 | 37.6 ± 15.1 | 344.4 ± 40.6*** 10 mg · L^−1 | 34.41 ± 9.65*** 10 mg · L^−1 | 69.60 ± 16.10 | 16.44 ± 3.25 | 46.5 ± 13.8 | 25.7 ± 14.8 | time of maintaining sinus rhythm ([3]; drug 0.5 mg/kg into vein): 45.478 ± 5.271 min; time of storing sinus rhythm ([3]; drug 0.5 mg/kg into vein): 6.752 ± 4.132 min; Number of error [8]: 3.1 ± 1.7 n
pentanediol-disulphonic acid-(5-androsten-17-one-3β-ol)-diester [Compound J] | 29.84 ± 3.16 | 67.84 ± 4.68 | 37.55 ± 3.26 | 268.28 ± 42.59 | 197.45 ± 26.88 | 95.67 ± 15.67 | 0.54 ± 0.12 | 0.52 ± 0.07 | 0.56 ± 0.07 | 0.54 ± 0.08 | 239.40 ± 16.15 | 257.05 ± 31.30 | 26.47 ± 3.25 | 32.2 ± 13.1 | 337.6 ± 32.8*** 10 mg · L^−1 | 37.60 ± 8.44*** 10 mg · L^−1 | 61.29 ± 15.34 | 17.24 ± 3.34 | 52.0 ± 17.2 | 30.8 ± 15.0 | time of maintaining sinus rhythm ([3]; drug 1.5 mg/kg into vein): 51.762 ± 6.275 min; time of storing sinus rhythm ([3]; drug 1.5 mg/kg into vein): 3.584 ± 2.471 min; time of maintaining sinus rhythm ([3]; drug 2.5 mg/kg into vein): 59.248 ± 1.527 min; time of storing sinus rhythm ([3]; drug 2.5 mg/kg into vein): 0.845 ± 1.529 min; Number of error [8]: 3.2 ± 1.6 n
